Earlier results as cited in EP2561868A1 (Van Oosten, Anton Bernhard, priority 2011, dated 2013).
“Also recorded” adds a separate entry of the source.

Legend:
[1] = test system: multiple myeloma and MGUS; details: patients with multiple myeloma and MGUS
[2] = test system: serum immunoglobulin; details: patient Z
[3] = test system: bone marrow plasma cell; details: patient Z
[4] = molecular target: P-glycoprotein (Homo sapiens, UniProt P08183)
[5] = molecular target: human CYP3A4 (Homo sapiens, UniProt P08684)
[6] = not given; remark: listed apart in the source
[7] = curcumin 8000 - 14,000 mg, no HCQ

Chain of P-glycoprotein (P08183 whole entry): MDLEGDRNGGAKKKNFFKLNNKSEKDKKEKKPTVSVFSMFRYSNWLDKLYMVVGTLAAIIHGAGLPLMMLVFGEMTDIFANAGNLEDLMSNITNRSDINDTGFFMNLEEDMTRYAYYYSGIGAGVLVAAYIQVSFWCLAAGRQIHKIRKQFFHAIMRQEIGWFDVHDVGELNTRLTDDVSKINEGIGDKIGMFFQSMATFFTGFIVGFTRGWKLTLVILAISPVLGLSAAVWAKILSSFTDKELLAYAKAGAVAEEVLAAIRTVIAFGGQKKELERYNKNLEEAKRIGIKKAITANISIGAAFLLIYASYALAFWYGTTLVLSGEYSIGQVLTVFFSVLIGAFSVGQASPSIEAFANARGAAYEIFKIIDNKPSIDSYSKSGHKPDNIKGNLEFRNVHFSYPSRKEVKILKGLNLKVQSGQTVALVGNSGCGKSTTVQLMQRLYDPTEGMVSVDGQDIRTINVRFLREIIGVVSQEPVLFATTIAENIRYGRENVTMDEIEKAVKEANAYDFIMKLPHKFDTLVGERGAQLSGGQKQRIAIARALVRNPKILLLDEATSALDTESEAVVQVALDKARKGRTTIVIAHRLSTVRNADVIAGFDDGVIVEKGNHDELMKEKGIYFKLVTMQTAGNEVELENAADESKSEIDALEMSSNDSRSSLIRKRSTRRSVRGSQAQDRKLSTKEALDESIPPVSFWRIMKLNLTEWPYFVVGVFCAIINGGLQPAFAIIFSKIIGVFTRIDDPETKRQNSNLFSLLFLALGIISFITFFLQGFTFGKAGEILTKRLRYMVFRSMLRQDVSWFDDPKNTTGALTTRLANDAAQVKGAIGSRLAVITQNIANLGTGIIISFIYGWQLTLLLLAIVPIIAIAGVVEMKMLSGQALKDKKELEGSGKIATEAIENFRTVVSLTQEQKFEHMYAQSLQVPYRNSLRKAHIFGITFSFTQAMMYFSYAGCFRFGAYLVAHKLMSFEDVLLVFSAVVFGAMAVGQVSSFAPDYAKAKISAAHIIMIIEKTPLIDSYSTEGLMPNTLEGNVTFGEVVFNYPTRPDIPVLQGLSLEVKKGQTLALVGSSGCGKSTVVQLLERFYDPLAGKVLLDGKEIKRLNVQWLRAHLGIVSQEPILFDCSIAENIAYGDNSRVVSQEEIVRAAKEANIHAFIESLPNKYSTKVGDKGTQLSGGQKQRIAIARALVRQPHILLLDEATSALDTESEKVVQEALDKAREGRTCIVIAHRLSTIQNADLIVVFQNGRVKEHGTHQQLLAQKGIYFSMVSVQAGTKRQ
Chain of human CYP3A4 (P08684 whole entry): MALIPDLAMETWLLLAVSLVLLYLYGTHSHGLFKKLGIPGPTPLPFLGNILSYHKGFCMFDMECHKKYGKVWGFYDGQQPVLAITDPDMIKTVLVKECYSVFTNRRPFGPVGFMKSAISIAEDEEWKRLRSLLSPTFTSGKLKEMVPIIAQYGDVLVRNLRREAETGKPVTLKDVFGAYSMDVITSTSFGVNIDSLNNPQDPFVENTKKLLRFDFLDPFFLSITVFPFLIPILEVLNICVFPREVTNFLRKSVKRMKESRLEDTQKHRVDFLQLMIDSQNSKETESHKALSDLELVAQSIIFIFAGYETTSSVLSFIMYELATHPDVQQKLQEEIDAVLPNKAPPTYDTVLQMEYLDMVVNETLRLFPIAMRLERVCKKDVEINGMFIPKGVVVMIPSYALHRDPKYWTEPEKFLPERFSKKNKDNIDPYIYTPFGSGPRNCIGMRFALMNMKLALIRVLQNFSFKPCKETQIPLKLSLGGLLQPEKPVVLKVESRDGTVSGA

COc1cc(/C=C/C(=O)CC(=O)/C=C/c2ccc(O)c(OC)c2)ccc1O [curcumin]
objective responses [1]: no objective responses
m-spike / M-IgG serum concentration, response to treatment [2, 7]: did not react to treatment
clinical benefit ([3]; 8000 mg to 14,000 mg daily, June 27 to December 26, 2007): without any clear benefit
BMPC values / progression [3, 7]: did not prevent progression or cause a downward evolution of the BMPC nor the m-spike; also recorded: No clear benefit

O=C1CC[C@@]2(O)[C@H]3Cc4ccc(O)c5c4[C@@]2(CCN3CC2CC2)[C@H]1O5 [LDN]
IgG ([2]; serum, 12/26/07, LDN, diet): 30.0 g/L
M-IgG ([2]; serum, 12/26/07, LDN, diet): 20.5 g/L

O=C(/C=C/C=C/c1ccc2c(c1)OCO2)N1CCCCC1 [piperine]
inhibition of P-glycoprotein [4]: inhibit
inhibition of human CYP3A4 [5]: inhibit

CCN(CCO)CCCC(C)Nc1ccnc2cc(Cl)ccc12.O=S(=O)(O)O (centres unmarked) [Hydroxychloroquine, 2-[[4-[(7-Chloro-4-quinolyl)amino]pentyl]ethylamino] ethanol sulfate (1:1)]
soluble in water: at least 20%
risk of toxicity ([6]; after 5 to 7 years of use, or a cumulative dose of 1000 g): ~1%
dose considered safe ([6]; non-obese person (Marmor M et al., 2002)): 6.5 mg/kg/day
